According to patent publication US8778871B2 (Takeda Pharmaceutical Company Limited, priority 2004, dated 2014):
Non-standard residues stand in square brackets, D forms with d. Residues, ends and D or L forms follow the SMILES beside them. No end group written: not given here. Phe(2-Cl) = N[C@@H](Cc1ccccc1Cl)C(=O)O; 1Nal = N[C@@H](Cc1cccc2ccccc12)C(=O)O; 2Nal = N[C@@H](Cc1ccc2ccccc2c1)C(=O)O; Arg(Me) = CNC(=N)NCCC[C@H](N)C(=O)O; Bta = N[C@@H](Cc1csc2ccccc12)C(=O)O; 4Pal = N[C@@H](Cc1ccncc1)C(=O)O; Cha = N[C@@H](CC1CCCCC1)C(=O)O; azaGly = NNC(=O)O

Target: T1, hOT7T175 (Homo sapiens, UniProt Q969F8, L364H)
T1 construct: expressed in transfected cells
Assay: Intracellular Ca ion level-increasing activity using FLIPR (180 seconds; specific activity to Metastin (1-54))
Format: cell-based
Conditions: hOT7T175/CHO, relative to Metastin (1-54) = 1

T1 sequence (Q969F8 whole entry L364H): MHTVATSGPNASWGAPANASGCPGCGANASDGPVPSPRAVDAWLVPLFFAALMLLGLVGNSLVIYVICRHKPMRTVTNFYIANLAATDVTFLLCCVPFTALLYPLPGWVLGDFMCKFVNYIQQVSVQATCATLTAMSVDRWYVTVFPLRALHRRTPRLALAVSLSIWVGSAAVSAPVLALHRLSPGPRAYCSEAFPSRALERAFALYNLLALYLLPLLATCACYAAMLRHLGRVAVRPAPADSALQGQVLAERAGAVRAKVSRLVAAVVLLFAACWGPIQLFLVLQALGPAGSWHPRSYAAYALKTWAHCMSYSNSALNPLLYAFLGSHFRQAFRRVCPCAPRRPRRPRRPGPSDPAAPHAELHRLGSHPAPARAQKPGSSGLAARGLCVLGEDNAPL

Molecule	Specific Act. (intracellular Ca ion level-increasing activity, specific activity to Metastin (1-54))
CNC(=N)NCCC[C@H](NC(=O)[C@H](CC(C)C)NC(=O)CNC(=O)[C@H](Cc1ccccc1)NC(=O)[C@H](CO)NC(=O)[C@H](CC(N)=O)NC(=O)[C@@H](NC(=O)[C@H](N)Cc1ccc(O)cc1)[C@@H](C)O)C(=O)N[C@@H](Cc1ccccc1)C(N)=O [Compound No. 227] (H-[dY]TNSFGL[Arg(Me)]F-NH2)	1
D-Tyr-Asn-Trp-Gln-Ser-Phe-Gly-Leu-Arg(Me)-Phe-NH2 ([dY]NWQSFGL[Arg(Me)]F-NH2) [Compound No. 209]	½
CNC(=N)NCCC[C@H](NC(=O)[C@H](CC(C)C)NC(=O)NNC(=O)[C@H](Cc1ccccc1)NC(=O)[C@H](CO)NC(=O)[C@H](CC(N)=O)NC(=O)[C@H](Cc1ccccc1)NC(=O)[C@H](CC(N)=O)NC(=O)[C@H](N)Cc1ccc(O)cc1)C(=O)N[C@@H](Cc1ccccc1)C(N)=O [Compound No. 244, D-Tyr-Asn-Phe-Asn-Ser-Phe-AzaGly-Leu-Arg(Me)-Phe-NH2] (H-[dY]NFNSF[azaGly]L[Arg(Me)]F-NH2)	1
CC(C)C[C@H](NC(=O)CNC[C@H](Cc1ccccc1)NC(=O)[C@H](CO)NC(=O)[C@H](CC(N)=O)NC(=O)[C@H](Cc1c[nH]c2ccccc12)NC(=O)[C@H](CC(N)=O)NC(=O)[C@@H](N)Cc1ccc(O)cc1)C(=O)N[C@@H](CCCNC(=N)N)C(=O)N[C@@H](Cc1ccccc1)C(N)=O [Compound No. 163, Tyr-Asn-Trp-Asn-Ser-PheΨ(CH2NH)Gly-Leu-Arg-Phe-NH2]	1
CC(C)C[C@H](NC(=O)CNC(=O)[C@H](Cc1ccccc1)NC(=O)[C@H](CO)NC(=O)[C@H](CC(N)=O)NC(=O)[C@H](Cc1cn(C=O)c2ccccc12)NC(=O)[C@H](CC(N)=O)NC(=O)[C@@H](N)Cc1ccc(O)cc1)C(=O)N[C@@H](CCCNC(=N)N)C(=O)N[C@@H](Cc1ccc(C#N)cc1)C(N)=O [Compound No. 78, Tyr-Asn-Trp(For)-Asn-Ser-Phe-Gly-Leu-Arg-Phe(4CN)-NH2]	10
CC(C)C[C@H](NC(=O)CNC(=O)[C@H](Cc1ccccc1)NC(=O)[C@H](CO)NC(=O)[C@H](CC(N)=O)NC(=O)[C@H](Cc1c[nH]c2ccccc12)NC(=O)[C@H](CC(N)=O)NC(=O)[C@@H](N)Cc1ccc(O)cc1)C(=O)N[C@@H](CCCNC(=N)N)C(=O)N[C@@H](Cc1ccncc1)C(N)=O [Compound No. 17] (H-YNWNSFGLR[4Pal]-NH2)	5
CNC(=N)NCCC[C@H](NC(=O)[C@H](CC(C)C)NC(=O)CNC(=O)[C@H](Cc1ccccc1)NC(=O)[C@H](CO)NC(=O)[C@H](CC(N)=O)NC(=O)[C@H](CO)NC(=O)[C@H](CC(N)=O)NC(=O)[C@H](N)Cc1ccc(O)cc1)C(=O)N[C@@H](Cc1ccccc1)C(N)=O [Compound No. 170] (H-[dY]NSNSFGL[Arg(Me)]F-NH2)	1
CC(C)C[C@H](NC(=O)CNC(=O)[C@H](Cc1ccccc1)NC(=O)[C@H](CO)NC(=O)[C@H](CC(N)=O)NC(=O)[C@H](Cc1c[nH]c2ccccc12)NC(=O)[C@H](CC(N)=O)NC(=O)[C@@H](N)Cc1ccc(O)cc1)C(=O)N[C@@H](CCCNC(=N)N)C(=O)N[C@@H](CC1CCCCC1)C(N)=O [Compound No. 112] (H-YNWNSFGLR[Cha]-NH2)	2
CCNC(=N)NCCC[C@H](NC(=O)[C@H](CC(C)C)NC(=O)CNC(=O)[C@H](Cc1ccccc1)NC(=O)[C@H](CO)NC(=O)[C@H](CC(N)=O)NC(=O)[C@H](Cc1c[nH]c2ccccc12)NC(=O)[C@H](CC(N)=O)NC(=O)[C@H](N)Cc1ccc(O)cc1)C(=O)N[C@@H](Cc1ccccc1)C(N)=O [Compound No. 192]	1
H-DNWNSFGLRF-NH2 [Compound No. 75]	1
CNC(=N)NCCC[C@H](NC(=O)[C@H](CC(C)C)NC(=O)CNC(=O)[C@H](Cc1ccccc1)NC(=O)[C@H](CO)NC(=O)[C@H](CC(N)=O)NC(=O)[C@@H](Cc1c[nH]c2ccccc12)NC(=O)[C@H](N)Cc1ccc(O)cc1)C(=O)N[C@@H](Cc1ccccc1)C(N)=O [Compound No. 224, D-Tyr-D-Trp-Asn-Ser-Phe-Gly-Leu-Arg(Me)-Phe-NH2] (H-[dY][dW]NSFGL[Arg(Me)]F-NH2)	2
CC(C)C[C@H](NC(=O)CNC(=O)[C@H](Cc1ccccc1)NC(=O)[C@H](CO)NC(=O)[C@H](CC(N)=O)NC(=O)[C@H](Cc1c[nH]c2ccccc12)NC(=O)[C@H](CC(N)=O)NC(=O)[C@@H](N)Cc1ccc(O)cc1)C(=O)N[C@@H](CCCNC(=N)N)C(=O)N[C@@H](Cc1csc2ccccc12)C(N)=O [Compound No. 189] (H-YNWNSFGLR[Bta]-NH2)	10
CC(C)C[C@H](NC(=O)CNC(=O)[C@H](Cc1ccccc1)NC(=O)[C@H](CO)NC(=O)[C@H](CC(N)=O)NC(=O)[C@H](Cc1c[nH]c2ccccc12)NC(=O)[C@H](CC(N)=O)NC(=O)[C@@H](N)Cc1ccc(O)cc1)C(=O)N[C@@H](CCCNC(=N)N)C(=O)N[C@@H](Cc1ccc([N+](=O)[O-])cc1)C(N)=O [Compound No. 132]	10
CNC(=N)NCCC[C@H](NC(=O)[C@H](CC(C)C)NC(=O)CNC(=O)[C@H](Cc1ccccc1)NC(=O)[C@H](CO)NC(=O)[C@H](CC(N)=O)NC(=O)[C@H](C)NC(=O)[C@H](CC(N)=O)NC(=O)[C@H](N)Cc1ccc(O)cc1)C(=O)N[C@@H](Cc1ccccc1)C(N)=O [Compound No. 169] (H-[dY]NANSFGL[Arg(Me)]F-NH2)	2
CNC(=N)NCCC[C@H](NC(=O)[C@H](CC(C)C)NC(=O)[C@H](C)NC(=O)[C@H](Cc1ccccc1)NC(=O)[C@H](CO)NC(=O)[C@H](CC(N)=O)NC(=O)[C@H](Cc1c[nH]c2ccccc12)NC(=O)[C@H](CC(N)=O)NC(=O)[C@H](N)Cc1ccc(O)cc1)C(=O)N[C@@H](Cc1ccccc1)C(N)=O [Compound No. 204] (H-[dY]NWNSFAL[Arg(Me)]F-NH2)	5
CC(C)C[C@H](NC(=O)CNC(=O)[C@H](Cc1ccc(F)cc1)NC(=O)[C@H](CO)NC(=O)[C@H](CC(N)=O)NC(=O)[C@H](Cc1c[nH]c2ccccc12)NC(=O)[C@H](CC(N)=O)NC(=O)[C@@H](N)Cc1ccc(O)cc1)C(=O)N[C@@H](CCCNC(=N)N)C(=O)N[C@@H](Cc1ccccc1)C(N)=O [Compound No. 154, Tyr-Asn-Trp-Asn-Ser-Phe(4F)-Gly-Leu-Arg-Phe-NH2]	5
CNC(=N)NCCC[C@H](NC(=O)[C@H](CC(C)C)NC(=O)NNC(=O)[C@H](Cc1ccccc1)NC(=O)[C@H](CO)NC(=O)[C@H](CC(N)=O)NC(=O)[C@H](Cc1ccccc1Cl)NC(=O)[C@H](CC(N)=O)NC(=O)[C@H](N)Cc1ccc(O)cc1)C(=O)N[C@@H](Cc1ccccc1)C(N)=O [Compound No. 247, D-Tyr-Asn-Phe(2Cl)-Asn-Ser-Phe-AzaGly-Leu-Arg(Me)-Phe-NH2] (H-[dY]N[Phe(2-Cl)]NSF[azaGly]L[Arg(Me)]F-NH2)	1
CNC(=N)NCCC[C@H](NC(=O)[C@H](CC(C)C)NC(=O)NNC(=O)[C@H](Cc1ccccc1)NC(=O)[C@H](CO)NC(=O)[C@H](CC(N)=O)NC(=O)[C@H](Cc1ccc2ccccc2c1)NC(=O)[C@H](CC(N)=O)NC(=O)[C@H](N)Cc1ccc(O)cc1)C(=O)N[C@@H](Cc1ccccc1)C(N)=O [Compound No. 246, D-Tyr-Asn-Nal(2)-Asn-Ser-Phe-AzaGly-Leu-Arg(Me)-Phe-NH2] (H-[dY]N[2Nal]NSF[azaGly]L[Arg(Me)]F-NH2)	2
CNC(=N)NCCC[C@H](NC(=O)[C@H](CC(C)C)NC(=O)CNC(=O)[C@H](Cc1ccccc1)NC(=O)[C@H](CO)NC(=O)[C@H](CC(N)=O)NC(=O)[C@H](Cc1c[nH]c2ccccc12)NC(=O)[C@H](CCC(N)=O)NC(=O)[C@H](N)Cc1ccc(O)cc1)C(=O)N[C@@H](Cc1ccccc1)C(N)=O [Compound No. 214] (H-[dY]QWNSFGL[Arg(Me)]F-NH2)	10
CNC(=N)NCCC[C@H](NC(=O)[C@H](CC(C)C)NC(=O)NNC(=O)[C@H](Cc1ccccc1)NC(=O)[C@H](CO)NC(=O)[C@H](CC(N)=O)NC(=O)[C@H](CC1CCCCC1)NC(=O)[C@H](CC(N)=O)NC(=O)[C@H](N)Cc1ccc(O)cc1)C(=O)N[C@@H](Cc1ccccc1)C(N)=O [Compound No. 190, D-Tyr-Asn-Cha-Asn-Ser-Phe-AzaGly-Leu-Arg(Me)-Phe-NH2] (H-[dY]N[Cha]NSF[azaGly]L[Arg(Me)]F-NH2)	10
CNC(=N)NCCC[C@H](NC(=O)[C@H](CC(C)C)NC(=O)CNC(=O)[C@H](Cc1ccccc1)NC(=O)[C@H](CO)NC(=O)[C@H](CC(N)=O)NC(=O)[C@@H](NC(=O)[C@H](CC(N)=O)NC(=O)[C@H](N)Cc1ccc(O)cc1)C(C)C)C(=O)N[C@@H](Cc1ccccc1)C(N)=O [Compound No. 229] (H-[dY]NVNSFGL[Arg(Me)]F-NH2)	1
CNC(=N)NCCC[C@H](NC(=O)[C@H](CC(C)C)NC(=O)CNC(=O)[C@H](Cc1ccccc1)NC(=O)[C@H](CO)NC(=O)[C@H](CC(N)=O)NC(=O)[C@@H](Cc1c[nH]c2ccccc12)NC(=O)[C@@H](CC(N)=O)NC(=O)[C@H](N)Cc1ccc(O)cc1)C(=O)N[C@@H](Cc1ccccc1)C(N)=O [Compound No. 231, D-Tyr-D-Asn-D-Trp-Asn-Ser-Phe-Gly-Leu-Arg(Me)-Phe-NH2]	1
CC(C)C[C@H](NC(=O)CNC(=O)[C@H](Cc1ccccc1)NC(=O)[C@H](CO)NC(=O)[C@H](CC(N)=O)NC(=O)[C@H](Cc1c[nH]c2ccccc12)NC(=O)[C@H](CC(N)=O)NC(=O)[C@@H](N)Cc1ccc(O)cc1)C(=O)N[C@@H](CCCNC(=N)N)C(=O)N[C@@H](Cc1cccc2ccccc12)C(N)=O [Compound No. 133] (H-YNWNSFGLR[1Nal]-NH2)	3
